# Source: patent US7183253B2, “Substantially pure glycopeptide antibiotics AC-98-1, AC-98-2, AC-98-3, AC-98-4 and AC-98-5” (Wyeth Holdings Corp., priority 2001, dated 2007)
# Numbered stars: 1 amine (or outer) side, 2 acyl side, 3 side chain; on linkers, the order of the positions; unused ones are H or OH. Square brackets hold non-standard residues; d marks the D form. Peptide text beside a SMILES is read from it. * marks the point of attachment. ξ: configuration not given here. X1 = N=C1NCC(C(O)C(N[*:1])C(=O)[*:2])N1C1OC(CO)C(O)C(O)C1O; ξEnduracididine(βξ-OH,4'ξ) = N=C1NCC(C(O)C(N)C(=O)O)N1; X2 = OCC1OC(OC2C(CO)OC(*)C(O)C2O)C(O)C(O)C1O; ξPhe(βξ-Me) = CC(c1ccccc1)C(N)C(=O)O
# How the values were obtained:
# [1] = system: Streptococcus pneumoniae (ID-4444); test: In vitro antibacterial activity, agar dilution MIC; format: cell-based; conditions: Mueller-Hinton agar, 5% sheep blood, 18 hours
# Protocol: (§1) The in vitro antibacterial activity of substantially pure glycopeptide antibiotics AC-98-1, AC-98-2, AC-98-3, AC-98-4, and AC-98-5 from Examples 2 and 3 is determined against a spectrum of bacteria by a standard agar dilution method. Mueller-Hinton agar containing 5% sheep blood and two-fold decreasing concentrations of substantially pure glycopeptide antibiotics AC-98-1, AC-98-2, AC-98-3, AC-98-4, and AC-98-5 from Examples 2 and 3 are poured into petri dishes. The agar surfaces are inoculated with 1 to 5×10^4 colony forming units of bacteria by means of a Steers replicating device. The lowest concentration of antibiotic that inhibited the growth of a bacterial strain after 18 hours incubation is recorded as the minimal inhibitory concentration for that strain.
# [2] = system: Micrococcus luteus (ATCC 9341); test: In vitro antibacterial activity, agar dilution MIC; format: cell-based; conditions: ATCC9341, Mueller-Hinton agar, 5% sheep blood, 18 hours
# Protocol: as §1
# [3] = system: Staphylococcus aureus Smith; test: In vivo antibacterial activity in infected mice; conditions: female CD-1 mice infected intraperitoneally with Staphylococcus aureus Smith; treated intravenously 30 minutes before infection; read-out: ED50 (iv, mg/kg) Staphylococcus aureus
# Protocol: The in vivo antibacterial activity of substantially pure glycopeptides AC-98-1, AC-98-2, AC-98-3, AC-98-4, and AC-98-5 is established by infecting female CD-1 mice from Charles River Laboratories, weighing 20+/−2 g each, intraperitoneally with 6.5×10^5 CFU/0.5 ml of broth of Staphylococcus aureus Smith. The mice are treated intravenously, 30 minutes before infection with the indicated dose of the test compound in 0.2 ml of water.
# [4] = system: Enterococcus faecium (ID-3301); test: In vitro antibacterial activity, agar dilution MIC; format: cell-based; conditions: Mueller-Hinton agar, 5% sheep blood, 18 hours
# Protocol: as §1
# [5] = system: Streptococcus pneumoniae (GC1889); test: In vitro antibacterial activity, agar dilution MIC; format: cell-based; conditions: Mueller-Hinton agar, 5% sheep blood, 18 hours
# Protocol: as §1
# [6] = system: Enterococcus faecium (ID-3953); test: In vitro antibacterial activity, agar dilution MIC; format: cell-based; conditions: Mueller-Hinton agar, 5% sheep blood, 18 hours
# Protocol: as §1
# [7] = system: Staphylococcus aureus (ID-4379); test: In vitro antibacterial activity, agar dilution MIC; format: cell-based; conditions: Mueller-Hinton agar, 5% sheep blood, 18 hours
# Protocol: as §1
# Escherichia coli (J2175) = test: In vitro antibacterial activity, agar dilution MIC; format: cell-based; conditions: Mueller-Hinton agar, 5% sheep blood, 18 hours
# Protocol: as §1
# [8] = system: Escherichia coli (ATCC 25922); test: In vitro antibacterial activity, agar dilution MIC; format: cell-based; conditions: ATCC25922, Mueller-Hinton agar, 5% sheep blood, 18 hours
# Protocol: as §1
SMILES,MIC [1],MIC [2],ED50 [3],MIC [4],MIC [5],MIC [6],MIC [7],MIC (Escherichia coli (J2175)),MIC [8]
"CC(c1ccccc1)C1NC(=O)CNC(=O)C(CO)NC(=O)C(C(O)C2CNC(=N)N2C2OC(CO)C(O)C(O)C2O)NC(=O)C(C(O)C2CNC(=N)N2)NC(=O)C(Cc2ccc(OC3OC(CO)C(OC4OC(CO)C(O)C(O)C4O)C(O)C3O)cc2)NC1=O (stereo not drawn) [AC-98-1] (cyclo(G[ξPhe(βξ-Me)]Y(X2)[ξEnduracididine(βξ-OH,4'ξ)][X1]S); configuration not given here)",> 32 mg/mL,64 mg/mL,20 mg/kg,,,,,,
CC(C)CC(=O)OC1C(O)C(CO)OC(OC2C(CO)OC(Oc3ccc(CC4NC(=O)C(C(C)c5ccccc5)NC(=O)CNC(=O)C(CO)NC(=O)C(C(O)C5CNC(=N)N5C5OC(CO)C(O)C(O)C5O)NC(=O)C(C(O)C5CNC(=N)N5)NC4=O)cc3)C(O)C2O)C1O (stereo not drawn) [AC-98-4],4 mg/mL,2 mg/mL,2.6 mg/kg,64 mg/mL,4 mg/mL,64 mg/mL,4 mg/mL,,
"CC(c1ccccc1)C1NC(=O)CNC(=O)C(CO)NC(=O)C(C(O)C2CNC(=N)N2C2OC(CO)C(O)C(O)C2O)NC(=O)C(C(O)C2CNC(=N)N2)NC(=O)C(Cc2ccc(O)cc2)NC1=O (stereo not drawn) [AC-98-2] (cyclo(G[ξPhe(βξ-Me)]Y[ξEnduracididine(βξ-OH,4'ξ)][X1]S); configuration not given here)",> 64 mg/mL,16 mg/mL,> 32 mg/kg,,,,64 mg/mL,64 mg/mL,64 mg/mL
CC(C)CC(=O)OC1C(OC2C(CO)OC(Oc3ccc(CC4NC(=O)C(C(C)c5ccccc5)NC(=O)CNC(=O)C(CO)NC(=O)C(C(O)C5CNC(=N)N5C5OC(CO)C(O)C(O)C5O)NC(=O)C(C(O)C5CNC(=N)N5)NC4=O)cc3)C(O)C2O)OC(CO)C(O)C1O (stereo not drawn) [AC-98-3],8 mg/mL,2 mg/mL,3.8 mg/kg,64 mg/mL,4 mg/mL,64 mg/mL,8 mg/mL,,
CC(C)CC(=O)OC1C(CO)OC(OC2C(CO)OC(Oc3ccc(CC4NC(=O)C(C(C)c5ccccc5)NC(=O)CNC(=O)C(CO)NC(=O)C(C(O)C5CNC(=N)N5C5OC(CO)C(O)C(O)C5O)NC(=O)C(C(O)C5CNC(=N)N5)NC4=O)cc3)C(O)C2O)C(O)C1O (stereo not drawn) [AC-98-5],2 mg/mL,1 mg/mL,0.6 mg/kg,16 mg/mL,,32 mg/mL,4 mg/mL,64 mg/mL,
